Values of other authors, collected in US7259160B2, “Hexahydrodiazepinones as dipeptidyl peptidase-IV inhibitors for the treatment or prevention of diabetes” (Merck & Co., Inc., priority 2003, dated 2007).

Key:
[1] = target: T1, DPP-IV (Homo sapiens, UniProt P27487)
T1 construct: GRF is rapidly degraded in plasma to GRF[344]

[2] = test system: hematopoiesis; details: mouse, cyclophosphamide-induced neutropenia

T1 sequence (P27487 whole entry, species assumed): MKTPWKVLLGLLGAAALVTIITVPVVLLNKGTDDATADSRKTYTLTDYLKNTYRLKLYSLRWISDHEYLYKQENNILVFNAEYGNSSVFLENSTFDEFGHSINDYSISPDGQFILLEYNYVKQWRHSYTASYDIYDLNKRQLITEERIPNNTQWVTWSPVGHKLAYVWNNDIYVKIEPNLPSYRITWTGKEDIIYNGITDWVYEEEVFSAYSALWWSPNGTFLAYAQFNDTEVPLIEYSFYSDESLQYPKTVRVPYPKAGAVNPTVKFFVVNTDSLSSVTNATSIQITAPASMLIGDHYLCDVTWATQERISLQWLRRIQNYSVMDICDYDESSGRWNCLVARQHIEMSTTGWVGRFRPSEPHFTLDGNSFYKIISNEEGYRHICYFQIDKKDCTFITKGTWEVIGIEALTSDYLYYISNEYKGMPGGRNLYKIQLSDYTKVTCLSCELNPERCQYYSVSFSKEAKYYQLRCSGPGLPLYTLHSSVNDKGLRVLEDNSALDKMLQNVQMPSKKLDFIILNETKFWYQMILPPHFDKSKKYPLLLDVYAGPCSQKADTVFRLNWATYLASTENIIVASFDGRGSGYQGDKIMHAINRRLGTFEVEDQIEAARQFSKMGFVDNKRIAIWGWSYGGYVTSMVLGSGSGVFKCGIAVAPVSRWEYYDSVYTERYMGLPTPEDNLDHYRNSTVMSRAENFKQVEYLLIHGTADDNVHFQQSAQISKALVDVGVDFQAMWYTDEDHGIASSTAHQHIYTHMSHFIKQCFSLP

| degradation of GRF in plasma [1] | Molecule | hematopoiesis [2] |
| --- | --- | --- |
| prevented | diprotin A | – |
| – | CC(C)[C@H](N)C(=O)N1CCC[C@H]1B(O)O [Val-Boro-Pro] | stimulated hematopoiesis |
